Assay results: patent publication US8586707B2, “Stapled peptides and method of synthesis” (The Research Foundation of State University of New York, priority 2008, dated 2013)
Read-outs that look alike come from different tables or passages of the source. Values belong to the molecule of their own block, whether it stands above or below them. *1 amine or outer side, *2 acyl side, *3 side chain or, on linkers, in order; H or OH if unused. Where a SMILES comes first, the peptide text is derived from it. Bridges are numbered along the chain shown (N, C = ends). [ ]: non-standard residue; d: D form. The star is where a group is joined. X1 = CN(C)c1ccc(N2N=C(C(=O)[*:2])CC2(C)C(=O)[*:1])cc1; X5 = COc1ccc(N2N=C(C(=O)[*:2])CC2(C)C(=O)[*:1])cc1; X3 = COc1ccc(N2N=C(C(=O)[*:2])CC2C(=O)[*:1])cc1; X4 = CC1(C(=O)[*:1])CC(C(=O)[*:2])=NN1c1ccccc1; X2 = COc1ccc(N2N=C(C(=O)*)CC2C(N)=O)cc1; Aib = CC(C)(N)C(=O)O

Tests used:
[1] = Far-UV circular dichroism, percent helicity; type: physicochemical; details: CD in trifluoroethanol at 25 °C, from mean residue ellipticity at 208 nm
Description: (§1) To examine the stapling effect on peptide secondary structure, we measured the far-UV circular dichroism (CD) spectra of the stapled peptides in trifluoroethanol (TFE) at 25° C. Because the tetrazoles in the linear peptides are labile to the CD scanning light (short wavelength UV light), we prepared a photo stable control peptide, Ac-Val-Lys(Ac)-Leu-Aib-Val-Lys(Ac)-Leu-NH2 (SEQ ID NO:1) (17; Ac=acetyl; Aib=amino isobutyric acid) as a linear surrogate. […] The percent helicity of 17 was determined to be 53% on the basis of mean residue ellipticity (MRE) at 208 nm. […] To further characterize the stability derived from the stapling, we measured thermal melting point (Tm) of the most helical peptide 16 by following its ellipticity over a wide temperature range (20-85° C.), and compared it to that of the linear photo stable peptide 17 (FIG. 5 (b)).
Circular Dichroism: CD spectra were obtained using 1-mm pathlength cuvettes on a JASCO J-715 instrument at 25° C. The instrument scan range was set at 190 to 250 nm. The scan rate was set at 50 nm/min, the response time was set at 2 sec, and the bandwidth was set at 1 nm. The spectra were the averages of two scans. For the measurement of percent helicity, peptides were dissolved in 100% trifluoroethanol (TFE); for the Tm determination, 20% TFE/H2O were used as the solvent. The percent helicity was calculated by using the following equation: […]

HeLa cells = assay: Cellular uptake study by fluorescent microscopy; type: cell-based; details: 100 μM peptide, 4 hours, 37 °C, DAPI filter
Description: To assess whether the stapled peptides are capable of penetrating cell membrane, we took advantage of the intrinsic fluorescence of the pyrazoline cross-linkers and monitored the stapled peptide cellular uptake by fluorescent microscopy. […] After incubating HeLa cells with 100 μM of peptide 13 for 4 hours in a 37° C. CO2 incubator, the cells were washed twice with PBS before fixing with 4% paraformaldehyde and the subcellular distribution of peptide 13 was examined by fluorescent microscopy.
Cellular Uptake Study: HeLa cells cultured on cover slips were treated with 100 μM of peptide 13 or control peptide 18 in 2% DMSO serum-free DMEM medium for 4 hr in a 37° C., 5% CO2 incubator. In preparation for fixation, medium was aspirated and the cells were washed twice with PBS. The cover slips were treated to a freshly prepared 4% paraformaldehyde/PBS solution for 10˜15 min, washed twice with PBS, and quenched with 50 mM NH4Cl for 10 minutes. After washing with PBS twice, the cover-slip was flipped and placed on top of microscopy glass containing in situ-frame and PBS buffer to make a sealed sample chamber. The images were acquired on a Zeiss Axioimager motorized fluorescence microscope. DAPI filter (ex 365 nm, em 445±25 nm) was used in acquiring fluorescence images. All image acquisitions and processing were performed under identical conditions.

[2] = Thermal melting point by CD ellipticity over 20-85 °C; type: physicochemical; details: for melting temperature (Tm): 100 μM peptide in 20% TFE/H2O, 20-85 °C
Description: as §1
Circular Dichroism: CD spectra were obtained using 1-mm pathlength cuvettes on a JASCO J-715 instrument at 25° C. The instrument scan range was set at 190 to 250 nm. The scan rate was set at 50 nm/min, the response time was set at 2 sec, and the bandwidth was set at 1 nm. The spectra were the averages of two scans. For the measurement of percent helicity, peptides were dissolved in 100% trifluoroethanol (TFE); for the Tm determination, 20% TFE/H2O were used as the solvent. The percent helicity was calculated by using the following equation:
[formula] The melting temperature (Tm) was determined by following a reported procedure. Briefly, a sample of 100 μM peptide in 20% TFE/H2O in an 1-mm pathlength cuvette was scanned at various temperatures from 20° C. to 85° C. (5-degree intervals) with an equilibration time of 3 min and a heating rate of 60° C./hr. The θ222 MRE data was normalized by setting the maximum θ222 MRE to 100% and the minimum θ222 MRE to 0.

[3] = the molecule shown is the open-chain precursor, other bond, hv 302 nm (tetrazole-alkene photocycloaddition)
[4] = the molecule shown is the open-chain precursor, other bond, 28-membered ring, hv 302 nm, 10 min, 0.15 mM
[5] = 28-membered ring, MeCN, 0.15 mM

percent helicity [1]: 51%
Molecule: CC(=O)N[C@H](C(=O)N[C@H]1CCCCNC(=O)C2(C)CC(=NN2c2ccccc2)C(=O)NCCCC[C@@H](C(=O)N[C@@H](CC(C)C)C(N)=O)NC(=O)[C@H](C(C)C)NC(=O)C(C)(C)NC(=O)[C@H](CC(C)C)NC1=O)C(C)C (some centres unmarked) [Peptide 11] (Ac-VKL[Aib]VKL-NH2; linker 2-6 via X4)

Molecule: COc1ccc(N2N=C3CC2C(=O)NCCCC[C@H](NC(=O)[C@@H](NC(C)=O)C(C)C)C(=O)N[C@@H](CC(C)C)C(=O)NC(C)(C)C(=O)N[C@@H](C(C)C)C(=O)N[C@H](C(=O)N[C@@H](CC(C)C)C(N)=O)CCCCNC3=O)cc1 (some centres unmarked) [Peptide 13] (Ac-VKL[Aib]VKL-NH2; linker 2-6 via X3)
cellular uptake (intracellular fluorescence) (HeLa cells): punctuated fluorescence was observed in discrete cytoplasmic regions within HeLa cells

percent helicity [1]: 51%
Molecule: COc1ccc(N2N=C3CC2(C)C(=O)NCCCC[C@H](NC(=O)[C@@H](NC(C)=O)C(C)C)C(=O)N[C@@H](CC(C)C)C(=O)NC(C)(C)C(=O)N[C@@H](C(C)C)C(=O)N[C@H](C(=O)N[C@@H](CC(C)C)C(N)=O)CCCCNC3=O)cc1 (some centres unmarked) [Peptide 14] (Ac-VKL[Aib]VKL-NH2; linker 2-6 via X5)

percent helicity [1]: 64%
melting temperature (Tm) [2]: 63 °C
increase in Tm versus linear peptide 17 ([2]; stapled 16 vs linear 17): 15 °C
Molecule: CC(=O)N[C@H](C(=O)N[C@H]1CCCCNC(=O)C2(C)CC(=NN2c2ccc(N(C)C)cc2)C(=O)NCCCC[C@@H](C(=O)N[C@@H](CC(C)C)C(N)=O)NC(=O)[C@H](C(C)C)NC(=O)C(C)(C)NC(=O)[C@H](CC(C)C)NC1=O)C(C)C (some centres unmarked) [Peptide 16] (Ac-VKL[Aib]VKL-NH2; linker 2-6 via X1)

percent helicity [1]: 53%
melting temperature (Tm) [2]: 48 °C
Molecule: CC(=O)NCCCC[C@H](NC(=O)[C@@H](NC(C)=O)C(C)C)C(=O)N[C@@H](CC(C)C)C(=O)NC(C)(C)C(=O)N[C@H](C(=O)N[C@@H](CCCCNC(C)=O)C(=O)N[C@@H](CC(C)C)C(N)=O)C(C)C [Peptide 17, Ac-Val-Lys(Ac)-Leu-Aib-Val-Lys(Ac)-Leu-NH2, reference compound] (Ac-VK(Ac)L[Aib]VK(Ac)L-NH2)

Molecule: COc1ccc(N2N=C(C(=O)NCCCC[C@H](NC(=O)[C@@H](NC(=O)C(C)(C)NC(=O)[C@H](CC(C)C)NC(=O)[C@H](CCCCNC(C)=O)NC(=O)[C@@H](NC(C)=O)C(C)C)C(C)C)C(=O)N[C@@H](CC(C)C)C(N)=O)CC2C(N)=O)cc1 (stereo partly drawn) [Peptide 18, Ac-Val-Lys(Pyr)-Leu-Aib-Val-Lys(Ac)-Leu-NH2, reference compound] (Ac-VK(Ac)L[Aib]VK(X2)L-NH2)
cellular uptake (intracellular fluorescence) (HeLa cells): did not yield cellular fluorescent pattern

Molecule: Ac-Leu-Thr-Phe-Lys(methacryloyl)-His-Tyr-Trp-Ala-Gln-Leu-Lys(N-(4-methoxy)phenyl-tetrazole)-Ser-NH2
ring closure, yield after HPLC [3]: 74%

Molecule: Ac-Val-Lys(acryloyl)-Leu-Aib-Val-Lys(2-(4-dimethylaminophenyl)-2H-tetrazole-5-carbonyl)-Leu-NH2?
ring closure, yield after HPLC [3, 5]: 64%

Molecule: Ac-Val-Lys(acryloyl)-Leu-Aib-Val-Lys(2-(4-methoxyphenyl)-2H-tetrazole-5-carbonyl)-Leu-NH2?
ring closure, yield after HPLC [3, 5]: 64%

Molecule: Ac-Val-Lys(methacryloyl)-Leu-Aib-Val-Lys(2-(4-dimethylaminophenyl)-2H-tetrazole-5-carbonyl)-Leu-NH2?
ring closure, conversion ([4]; DCM): 43%
ring closure, conversion ([4]; EtOAc): 86%
ring closure, conversion ([4]; EtOH): 92%
ring closure, conversion ([4]; MeCN): 87%
ring closure, conversion ([4]; iPrOH): 88%
ring closure, yield after HPLC [3, 5]: 94%

Molecule: Ac-Val-Lys(methacryloyl)-Leu-Aib-Val-Lys(2-(4-methoxyphenyl)-2H-tetrazole-5-carbonyl)-Leu-NH2?
ring closure, yield after HPLC [3, 5]: 53%

Molecule: Ac-Val-Lys(methacryloyl)-Leu-Aib-Val-Lys(2-phenyl-2H-tetrazole-5-carbonyl)-Leu-NH2?
ring closure, yield after HPLC [3, 5]: 41%

Molecule: Ac-Val-Lys(methacryloyl)-Leu-Aib-Val-Lys(4-(2-phenyl-2H-tetrazol-5-yl)benzoyl)-Leu-NH2?
ring closure, yield after HPLC ([3]; 32-membered ring, MeCN, 0.15 mM): 38%

Molecule: Ac-Val-Orn(methacryloyl)-Leu-Aib-Val-Orn(2-phenyl-2H-tetrazole-5-carbonyl)-Leu-NH2?
ring closure, yield after HPLC ([3]; 26-membered ring, MeCN, 0.15 mM): 15%

Molecule: Ac-Val-Orn(methacryloyl)-Leu-Aib-Val-Orn(4-(2-phenyl-2H-tetrazol-5-yl)benzoyl)-Leu-NH2?
ring closure, yield after HPLC ([3]; 30-membered ring, MeCN, 0.15 mM): 15%
